Tests used:
[1] = target: Angiotensin-converting enzyme (Homo sapiens) (UniProt P12821); test: ACE (h) Eurofins-Cerep enzyme and uptake assay; details: Compound concentration 10.0 uM
[2] = target: Acetylcholinesterase (Homo sapiens) (UniProt P22303); test: Acetylcholinesterase (h) Eurofins-Cerep enzyme and uptake assay; details: Compound concentration 10.0 uM
[3] = target: T1, Alpha-2B adrenergic receptor (Homo sapiens) (UniProt P18089); test: Alpha2B (h) Eurofins-Cerep binding assay; design: ligand concentration 2.5 nM; details: filed as antagonist, Compound concentration 10.0 uM
T1 sequence (whole entry): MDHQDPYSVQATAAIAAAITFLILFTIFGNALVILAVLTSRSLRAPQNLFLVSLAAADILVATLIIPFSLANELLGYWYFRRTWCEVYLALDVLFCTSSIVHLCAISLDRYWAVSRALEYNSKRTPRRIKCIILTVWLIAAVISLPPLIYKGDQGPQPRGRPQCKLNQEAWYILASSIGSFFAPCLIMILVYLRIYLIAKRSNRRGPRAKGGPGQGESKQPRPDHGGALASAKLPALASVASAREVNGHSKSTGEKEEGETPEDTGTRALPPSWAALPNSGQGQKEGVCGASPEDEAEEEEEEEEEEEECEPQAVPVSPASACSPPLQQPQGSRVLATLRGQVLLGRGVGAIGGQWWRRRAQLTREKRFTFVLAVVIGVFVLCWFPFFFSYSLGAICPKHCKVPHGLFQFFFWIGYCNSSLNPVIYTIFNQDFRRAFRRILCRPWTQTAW

[4] = target: Type-2 angiotensin II receptor (Homo sapiens) (UniProt P50052); test: AT2 (h) Eurofins-Cerep binding assay; details: filed as agonist, Compound concentration 10.0 uM
[5] = target: B2 bradykinin receptor (Homo sapiens) (UniProt P30411); test: B2 (h) Eurofins-Cerep binding assay; design: ligand concentration 0.3 nM; details: filed as agonist, Compound concentration 10.0 uM
[6] = target: Substance-K receptor (Homo sapiens) (UniProt P21452); test: NK2 (h) Eurofins-Cerep binding assay; design: ligand concentration 0.1 nM; details: filed as agonist, Compound concentration 10.0 uM
Rattus norvegicus = organism: Rattus norvegicus; test: SKCa channel Eurofins-Cerep binding assay; design: ligand concentration 0.007 nM; details: filed as antagonist, Compound concentration 10.0 uM
[7] = target: voltage-gated Na+ channel (site 2) (Rattus norvegicus, UniProt F1LQQ7+O08562+O88420+O88457+P04774+P04775+P08104+P15389+P15390+Q62968); test: Na+ channel (site 2) Eurofins-Cerep binding assay; design: incubation time 60 min, incubation temperature 37°C, ligand concentration 10 nM; details: rat cerebral cortex (source of protein), probe [3H]batrachotoxin (10 nM), compound concentration 10 uM, read-out: % Inhibition of Control Specific Binding (Mean n=2)
[8] = system: Tyrosine-protein kinase ABL1 (Homo sapiens), P00519 [T315I]; details: Compound concentration 1000.0 nM
[9] = target: RAC-gamma serine/threonine-protein kinase (Homo sapiens) (UniProt Q9Y243); details: Compound concentration 1000.0 nM
[10] = system: ALK tyrosine kinase receptor (Homo sapiens), Q9UM73 [L1196M]; details: Compound concentration 1000.0 nM
[11] = target: Cyclin-dependent kinase 3 (Homo sapiens) (UniProt Q00526); details: Compound concentration 1000.0 nM
[12] = target: Casein kinase I isoform alpha (Homo sapiens) (UniProt P48729); details: Compound concentration 1000.0 nM
[13] = target: Casein kinase I isoform gamma-2 (Homo sapiens) (UniProt P78368); details: Compound concentration 1000.0 nM
[14] = target: Megakaryocyte-associated tyrosine-protein kinase (Homo sapiens) (UniProt P42679); details: Compound concentration 1000.0 nM
[15] = target: Death-associated protein kinase 2 (Homo sapiens) (UniProt Q9UIK4); details: Compound concentration 1000.0 nM
[16] = target: Epidermal growth factor receptor (Homo sapiens) (UniProt P00533); details: Compound concentration 1000.0 nM
[17] = system: Epidermal growth factor receptor (Homo sapiens), P00533 [UNDEFINED MUTATION]; details: Compound concentration 1000.0 nM
[18] = target: Ephrin type-B receptor 6 (Homo sapiens) (UniProt O15197); details: Compound concentration 1000.0 nM
[19] = target: Receptor tyrosine-protein kinase erbB-2 (Homo sapiens) (UniProt P04626); details: Compound concentration 1000.0 nM
[20] = target: Glycogen synthase kinase-3 beta (Homo sapiens) (UniProt P49841); details: Compound concentration 1000.0 nM
[21] = target: Interleukin-1 receptor-associated kinase 1 (Homo sapiens) (UniProt P51617); details: Compound concentration 1000.0 nM
[22] = target: Mitogen-activated protein kinase kinase kinase 15 (Homo sapiens) (UniProt Q6ZN16); details: Compound concentration 1000.0 nM
[23] = target: Mitogen-activated protein kinase kinase kinase kinase 2 (Homo sapiens) (UniProt Q12851); details: Compound concentration 1000.0 nM
[24] = target: Serine/threonine-protein kinase 4 (Homo sapiens) (UniProt Q13043); details: Compound concentration 1000.0 nM
[25] = target: Serine/threonine-protein kinase 3 (Homo sapiens) (UniProt Q13188); details: Compound concentration 1000.0 nM
[26] = target: Myosin-IIIa (Homo sapiens) (UniProt Q8NEV4); details: Compound concentration 1000.0 nM
[27] = system: Phosphatidylinositol 4,5-bisphosphate 3-kinase catalytic subunit alpha isoform (Homo sapiens), P42336 [E542K]; details: Compound concentration 1000.0 nM
[28] = system: Phosphatidylinositol 4,5-bisphosphate 3-kinase catalytic subunit alpha isoform (Homo sapiens), P42336 [E545A]; details: Compound concentration 1000.0 nM
[29] = system: Phosphatidylinositol 4,5-bisphosphate 3-kinase catalytic subunit alpha isoform (Homo sapiens), P42336 [E545K]; details: Compound concentration 1000.0 nM
[30] = target: Serine/threonine-protein kinase N2 (Homo sapiens) (UniProt Q16513); details: Compound concentration 1000.0 nM
[31] = target: Protein kinase C epsilon type (Homo sapiens) (UniProt Q02156); details: Compound concentration 1000.0 nM
[32] = target: cGMP-dependent protein kinase 1 (Homo sapiens) (UniProt Q13976); details: Compound concentration 1000.0 nM
[33] = target: Mitogen-activated protein kinase kinase kinase 7 (Homo sapiens) (UniProt O43318); details: Compound concentration 1000.0 nM
[34] = target: High affinity nerve growth factor receptor (Homo sapiens) (UniProt P04629); details: Compound concentration 1000.0 nM
[35] = target: Wee1-like protein kinase 2 (Homo sapiens) (UniProt P0C1S8); details: Compound concentration 1000.0 nM
[36] = target: Serine/threonine-protein kinase WNK1 (Homo sapiens) (UniProt Q9H4A3); details: Compound concentration 1000.0 nM
[37] = target: Tyrosine-protein kinase ZAP-70 (Homo sapiens) (UniProt P43403); details: Compound concentration 1000.0 nM

Sequence of ALK tyrosine kinase receptor (Homo sapiens), Q9UM73 [L1196M] (Q9UM73 whole entry L1196M, looked up): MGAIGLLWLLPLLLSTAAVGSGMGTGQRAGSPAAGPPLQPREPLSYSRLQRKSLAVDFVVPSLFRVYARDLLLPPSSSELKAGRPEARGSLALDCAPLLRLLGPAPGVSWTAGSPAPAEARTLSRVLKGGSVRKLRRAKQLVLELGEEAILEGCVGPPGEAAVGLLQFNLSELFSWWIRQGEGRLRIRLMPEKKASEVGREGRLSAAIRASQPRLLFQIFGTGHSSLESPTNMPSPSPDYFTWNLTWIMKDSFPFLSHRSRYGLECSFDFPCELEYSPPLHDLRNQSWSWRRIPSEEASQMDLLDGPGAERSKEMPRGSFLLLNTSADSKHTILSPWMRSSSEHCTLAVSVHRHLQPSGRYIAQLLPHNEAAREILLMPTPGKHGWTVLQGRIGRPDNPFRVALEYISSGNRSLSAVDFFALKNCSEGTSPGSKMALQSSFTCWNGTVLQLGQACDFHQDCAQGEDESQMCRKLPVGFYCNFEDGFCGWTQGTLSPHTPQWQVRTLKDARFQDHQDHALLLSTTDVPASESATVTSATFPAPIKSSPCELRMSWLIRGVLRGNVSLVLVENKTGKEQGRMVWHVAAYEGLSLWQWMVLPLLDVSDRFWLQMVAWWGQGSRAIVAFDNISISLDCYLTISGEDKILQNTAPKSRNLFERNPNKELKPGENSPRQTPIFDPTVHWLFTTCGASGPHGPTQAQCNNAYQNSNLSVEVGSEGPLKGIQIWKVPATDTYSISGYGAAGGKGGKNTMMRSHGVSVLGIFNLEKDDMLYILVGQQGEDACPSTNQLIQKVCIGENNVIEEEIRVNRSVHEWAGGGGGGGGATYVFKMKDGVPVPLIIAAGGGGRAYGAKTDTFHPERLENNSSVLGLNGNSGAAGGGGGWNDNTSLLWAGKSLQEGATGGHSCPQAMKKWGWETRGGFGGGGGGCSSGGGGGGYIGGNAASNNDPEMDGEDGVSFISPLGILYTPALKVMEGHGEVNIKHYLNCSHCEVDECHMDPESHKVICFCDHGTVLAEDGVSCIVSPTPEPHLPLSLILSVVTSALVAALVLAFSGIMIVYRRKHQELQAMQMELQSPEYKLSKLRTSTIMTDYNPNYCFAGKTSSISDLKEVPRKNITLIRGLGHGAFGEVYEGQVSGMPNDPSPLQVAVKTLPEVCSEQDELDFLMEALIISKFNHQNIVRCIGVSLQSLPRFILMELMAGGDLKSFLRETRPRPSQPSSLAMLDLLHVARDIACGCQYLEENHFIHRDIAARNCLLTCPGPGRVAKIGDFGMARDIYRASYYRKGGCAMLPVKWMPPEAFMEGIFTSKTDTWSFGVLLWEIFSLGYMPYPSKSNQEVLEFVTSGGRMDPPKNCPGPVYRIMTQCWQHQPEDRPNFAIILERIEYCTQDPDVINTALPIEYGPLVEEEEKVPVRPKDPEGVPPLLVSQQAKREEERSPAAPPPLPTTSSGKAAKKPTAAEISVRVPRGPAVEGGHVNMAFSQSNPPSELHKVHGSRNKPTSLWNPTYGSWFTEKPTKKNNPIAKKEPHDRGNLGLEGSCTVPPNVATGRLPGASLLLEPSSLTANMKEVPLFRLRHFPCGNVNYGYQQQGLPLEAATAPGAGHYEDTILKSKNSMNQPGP
Sequence of Serine/threonine-protein kinase N2 (Homo sapiens) (Q16513 whole entry, looked up): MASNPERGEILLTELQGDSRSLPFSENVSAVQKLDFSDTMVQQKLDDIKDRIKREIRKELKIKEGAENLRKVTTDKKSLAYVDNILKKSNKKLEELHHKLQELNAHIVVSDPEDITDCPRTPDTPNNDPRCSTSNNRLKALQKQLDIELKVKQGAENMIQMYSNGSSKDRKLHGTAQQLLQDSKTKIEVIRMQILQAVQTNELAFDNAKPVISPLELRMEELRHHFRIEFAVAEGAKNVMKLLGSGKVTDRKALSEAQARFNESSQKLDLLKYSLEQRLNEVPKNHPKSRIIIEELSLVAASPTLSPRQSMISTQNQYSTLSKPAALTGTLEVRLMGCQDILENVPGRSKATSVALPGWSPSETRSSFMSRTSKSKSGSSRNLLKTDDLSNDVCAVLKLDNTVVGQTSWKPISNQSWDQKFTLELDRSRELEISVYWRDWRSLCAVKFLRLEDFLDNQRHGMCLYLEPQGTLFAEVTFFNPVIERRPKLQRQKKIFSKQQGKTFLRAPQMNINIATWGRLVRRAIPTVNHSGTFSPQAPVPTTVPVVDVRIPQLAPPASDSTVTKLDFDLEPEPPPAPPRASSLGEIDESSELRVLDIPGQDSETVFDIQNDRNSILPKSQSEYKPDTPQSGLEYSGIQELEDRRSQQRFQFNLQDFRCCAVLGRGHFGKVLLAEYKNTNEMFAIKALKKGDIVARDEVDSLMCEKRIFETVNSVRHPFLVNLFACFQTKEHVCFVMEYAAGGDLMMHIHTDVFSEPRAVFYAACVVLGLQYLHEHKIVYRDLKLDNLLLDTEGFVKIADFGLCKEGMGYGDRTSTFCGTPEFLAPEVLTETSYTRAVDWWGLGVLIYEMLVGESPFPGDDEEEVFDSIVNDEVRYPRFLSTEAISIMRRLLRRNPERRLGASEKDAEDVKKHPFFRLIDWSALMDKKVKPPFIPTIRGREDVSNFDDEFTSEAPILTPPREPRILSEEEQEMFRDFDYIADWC
Sequence of cGMP-dependent protein kinase 1 (Homo sapiens) (Q13976 whole entry): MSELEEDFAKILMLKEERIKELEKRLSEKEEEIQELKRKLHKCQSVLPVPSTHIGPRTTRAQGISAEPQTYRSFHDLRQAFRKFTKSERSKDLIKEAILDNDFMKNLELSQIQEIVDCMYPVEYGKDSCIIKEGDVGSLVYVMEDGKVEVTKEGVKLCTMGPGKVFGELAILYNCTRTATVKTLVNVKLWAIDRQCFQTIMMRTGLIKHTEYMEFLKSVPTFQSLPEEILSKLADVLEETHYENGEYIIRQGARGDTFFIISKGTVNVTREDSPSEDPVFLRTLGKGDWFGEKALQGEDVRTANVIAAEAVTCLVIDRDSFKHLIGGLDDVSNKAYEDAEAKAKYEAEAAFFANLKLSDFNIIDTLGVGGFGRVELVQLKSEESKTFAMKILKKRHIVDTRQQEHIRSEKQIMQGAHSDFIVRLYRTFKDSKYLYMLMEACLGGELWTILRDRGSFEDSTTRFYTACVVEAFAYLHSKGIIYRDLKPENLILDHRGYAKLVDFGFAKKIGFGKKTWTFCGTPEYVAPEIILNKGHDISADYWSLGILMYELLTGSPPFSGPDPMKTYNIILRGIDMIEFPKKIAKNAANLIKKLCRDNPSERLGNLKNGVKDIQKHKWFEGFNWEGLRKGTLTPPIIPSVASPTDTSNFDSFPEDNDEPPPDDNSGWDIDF
Sequence of High affinity nerve growth factor receptor (Homo sapiens) (P04629 33-796 limits assumed): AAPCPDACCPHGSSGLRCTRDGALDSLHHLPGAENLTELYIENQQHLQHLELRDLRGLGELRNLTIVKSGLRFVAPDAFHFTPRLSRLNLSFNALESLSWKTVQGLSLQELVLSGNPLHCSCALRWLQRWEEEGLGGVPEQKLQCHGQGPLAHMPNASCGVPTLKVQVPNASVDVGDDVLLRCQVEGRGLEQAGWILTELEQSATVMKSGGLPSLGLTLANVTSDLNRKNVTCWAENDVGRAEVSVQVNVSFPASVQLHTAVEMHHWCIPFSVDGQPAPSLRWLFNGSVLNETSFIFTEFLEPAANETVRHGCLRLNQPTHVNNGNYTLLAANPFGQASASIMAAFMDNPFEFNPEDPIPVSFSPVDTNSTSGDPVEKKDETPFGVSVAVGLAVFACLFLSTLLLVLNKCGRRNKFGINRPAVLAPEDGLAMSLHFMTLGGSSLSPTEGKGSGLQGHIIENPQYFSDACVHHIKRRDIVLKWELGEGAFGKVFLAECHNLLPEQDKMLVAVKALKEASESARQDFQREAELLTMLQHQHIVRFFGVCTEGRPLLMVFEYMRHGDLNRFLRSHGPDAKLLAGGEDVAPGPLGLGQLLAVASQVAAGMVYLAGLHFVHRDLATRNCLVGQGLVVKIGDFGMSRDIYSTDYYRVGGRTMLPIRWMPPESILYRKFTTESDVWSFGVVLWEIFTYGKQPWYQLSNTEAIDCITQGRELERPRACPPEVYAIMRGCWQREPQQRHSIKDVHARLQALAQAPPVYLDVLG
Sequence of Substance-K receptor (Homo sapiens) (P21452 whole entry): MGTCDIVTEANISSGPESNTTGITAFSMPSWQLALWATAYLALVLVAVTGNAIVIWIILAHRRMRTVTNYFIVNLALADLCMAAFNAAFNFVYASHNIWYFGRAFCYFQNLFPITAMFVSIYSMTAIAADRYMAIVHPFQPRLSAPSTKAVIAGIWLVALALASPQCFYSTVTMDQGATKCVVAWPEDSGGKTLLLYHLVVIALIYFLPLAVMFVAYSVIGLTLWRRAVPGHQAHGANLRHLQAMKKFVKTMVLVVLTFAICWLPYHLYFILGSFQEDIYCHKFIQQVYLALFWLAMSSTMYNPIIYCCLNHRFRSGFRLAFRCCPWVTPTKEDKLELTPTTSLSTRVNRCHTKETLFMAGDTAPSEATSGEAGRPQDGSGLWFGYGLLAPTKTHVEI
Sequence of Type-2 angiotensin II receptor (Homo sapiens) (P50052 whole entry): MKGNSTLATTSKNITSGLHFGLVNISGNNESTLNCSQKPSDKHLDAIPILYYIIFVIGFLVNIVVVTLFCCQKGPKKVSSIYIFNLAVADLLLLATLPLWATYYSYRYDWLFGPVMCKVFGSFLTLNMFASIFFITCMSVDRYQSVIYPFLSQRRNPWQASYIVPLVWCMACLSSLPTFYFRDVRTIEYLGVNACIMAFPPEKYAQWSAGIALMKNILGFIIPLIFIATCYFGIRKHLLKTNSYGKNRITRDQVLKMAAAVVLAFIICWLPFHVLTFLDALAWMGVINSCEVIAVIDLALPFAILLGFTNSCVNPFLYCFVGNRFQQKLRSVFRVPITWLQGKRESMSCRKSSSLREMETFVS

SMILES	% Inhibition of Control Values (Mean n=2) [1] [%]	% Inhibition of Control Values (Mean n=2) [2] [%]	% Inhibition of Control Specific Binding (Mean n=2) [3] [%]	% Inhibition of Control Specific Binding (Mean n=2) [4] [%]	% Inhibition of Control Specific Binding (Mean n=2) [5] [%]	% Inhibition of Control Specific Binding (Mean n=2) [6] [%]	% Inhibition of Control Specific Binding (Mean n=2) (Rattus norvegicus) [%]	inhibition at 60 min, 10 µM [7] [%]	residual activity [8] [%]	residual activity [9] [%]	residual activity [10] [%]	residual activity [11] [%]	residual activity [12] [%]	residual activity [13] [%]	residual activity [14] [%]	residual activity [15] [%]	residual activity [16] [%]	residual activity [17] [%]	residual activity [18] [%]	residual activity [19] [%]	further results
CCCOc1ccc([C@@H]2[C@@H](C(=O)O)[C@H](c3ccc4c(c3)OCO4)CN2CC(=O)Nc2c(CC)cccc2CC)cc1 [A-1806262]	-13.7	4	1.5	20.8	-12.3	-3	-2	24.4	82	100	78	100	73	96	90	80	87	100	77	80	residual activity [20]: 100%; residual activity [21]: 96%; residual activity [22]: 99%; residual activity [23]: 98%; residual activity [24]: 95%; residual activity [25]: 100%; residual activity [26]: 100%; residual activity [27]: 81%; residual activity [28]: 92%; residual activity [29]: 68%; residual activity [30]: 100%; residual activity [31]: 97%; residual activity [32]: 97%; residual activity [33]: 97%; residual activity [34]: 97%; residual activity [35]: 87%; residual activity [36]: 91%; residual activity [37]: 94%
CCCOc1ccc([C@H]2[C@H](C(=O)O)[C@@H](c3ccc4c(c3)OCO4)CN2CC(=O)Nc2c(CC)cccc2CC)cc1 [A-192621]	-12.6	7	7.4	2.5	-8.6	18.3	0.5	29.1	77	82	91	95	72	100	83	100	100	100	65	79	residual activity [20]: 73%; residual activity [21]: 67%; residual activity [22]: 73%; residual activity [23]: 79%; residual activity [24]: 99%; residual activity [25]: 96%; residual activity [26]: 100%; residual activity [27]: 75%; residual activity [28]: 92%; residual activity [29]: 61%; residual activity [30]: 100%; residual activity [31]: 74%; residual activity [32]: 88%; residual activity [33]: 100%; residual activity [34]: 84%; residual activity [35]: 85%; residual activity [36]: 89%; residual activity [37]: 50%
